Reference: PMC9633773, “Discovering cell-active BCL6 inhibitors: effectively combining biochemical HTS with multiple biophysical techniques, X-ray crystallography and cell-based assays” (Scientific Reports, 2022)
Ends that are not written are not given here.

Legend:
[1] = NMR kinetic solubility; format: physicochemical; settings: 500 µM final compound concentration, 20 mM HEPES buffer pH 8, 2% or 5% DMSO
Protocol: Solubility measurements by quantitative ^1H-NMR or HPLC method were performed as described previously.

[2] = target: T1, BCL6 BTB (Homo sapiens, UniProt P41182); experiment: Thermal shift assay (TSA); format: binding; settings: measured at 200 and 400 µM compound; binder if ≥ 1 °C
T1 construct: the tag was removed by HRV-3C protease treatment, generating a simpler BCL6 5–129 product; Thioredoxin (N, cleaved yes); 6His (N, cleaved yes); made in house; host or cells: E. coli BL21-AI
Protocol: Thermal shift assays were performed in 4titude FrameStar (Part No. 4ti-0385) 384 well skirted PCR plates: each well contained 10 µL of sodium acetate pH 6 buffer, 100 mM NaCl, 0.5 mM TCEP, 10 µM BCL6 BTB and 20 × Sypro Orange dye (Life Technologies), with or without inhibitor compound (100–400 µM) at 4% (v/v) final DMSO concentration. Plates were heated on a Biorad CFX384 real time thermocycler with a temperature gradient from 10 to 95 °C with a 0.5 °C increment, 0.15 s/cycle. Data were processed using Vortex (Dotmatics): a shift of the BCL6 BTB melting temperature (ΔTm) of + 1 °C or more was classed as indicative of BCL6 compound binding.

[3] = target: T2, BCL6 BTB domain (Homo sapiens, UniProt P41182); experiment: Surface plasmon resonance (SPR); format: binding; settings: immobilised BCL6 BTB, pH 6.0, 1:1 equilibrium model;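 further: Fail means no measurable KD from unsaturated curves poor sensorgrams or non-1:1 stoichiometry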
T2 construct: the tag was removed by HRV-3C protease treatment, generating a simpler BCL6 5–129 product; Thioredoxin (N, cleaved yes); 6His (N, cleaved yes); made in house; host or cells: E. coli BL21-AI
Protocol: All surface plasmon resonance (SPR) experiments were carried out on a Biacore T200 (Cytiva) and amine coupling chemistry was used to immobilise the protein on a research grade CM5 sensor chip. The running buffer consisted of 100 mM sodium acetate, 100 mM sodium chloride, and 1 mM TCEP at pH 6.0. The chip’s surface was activated for 10 min using a 1:1 mixture of 100 mM N-hydroxysuccinimide and 400 mM 1-ethyl-3-(3-dimethylaminopropyl)-carbodiimide. BCL6 BTB protein was injected for 20 min at a concentration of 100 µg/mL in a 10 mM sodium acetate buffer (pH 5.5). Finally, the surface was blocked via an injection of 1 M ethanolamine pH 8.5 for 7 min. The flow rate was maintained at 10 µL/min for all the above procedures and ~ 10,000 response units (RU) of BCL6 was immobilised on the chip. Flow cell one was left unmodified as the reference surface.
Following protein immobilisation, the running buffer was changed to 100 mM sodium acetate, 100 mM sodium chloride, 1 mM TCEP, 0.05% Tween20 (v/v), 5% DMSO at pH 6.0.
All compound handling was performed on an ECHO 550 acoustic liquid dispenser and compounds were added to 384-well polypropylene V-bottomed plates (Greiner), which became the sample plates for the SPR. […] The flow rate was 30 µL/min, the injection time for the samples was 60 s, and the dissociation time was 60 s. The surface was not regenerated between sample injections. KD values were calculated from the Langmuir plot under equilibrium conditions using the 1:1 binding model in the Biacore software version 2 (Cytiva).

[4] = target: T1, BCL6 BTB; experiment: 19F ligand-observed NMR TFA-WVIP-NH2 peptide displacement assay; format: binding; settings: for 19F LO-NMR, % peptide displaced: 200 µM compound, 200 µM TFA-WVIP-NH2, 6 µM BCL6 BTB, mean ± SD, n=2, hit if ≥ 30%; for Displacement of BCL6-bound TFA-WVIP-NH2 peptide (recovery of fluorine signal): Figure 3A, qualitative
Protocol: Each 180 µL ^19F-NMR peptide displacement assay contained 20 mM HEPES buffer pH 8, 100 mM NaCl, 0.5 mM TCEP, 10% D2O, 200 µM reporter TFA-WVIP-NH2, with or without 200 µM compound (4% D6-DMSO final) and 6 µM BCL6 BTB. Each 180 µL sample reaction was prepared in a 96-well plate and 170 µL transferred to a 3 mm NMR tube (Bruker, Part No. Z112272) using a Gilson liquid handler GX-281. NMR data were collected on a Bruker […] 500 MHz spectrometer equipped with a 5 mm BBFO probe. Data were acquired and processed using Bruker Topsin 2.1. The recovery of the reporter NMR signal upon addition of compound indicates competitive binding at the same site as the TFA-WVIP-NH2 tetrapeptide on the protein. We quantified the extent of recovery of NMR signal in % of reporter displacement[42]: \% displacement=Ireporter(+protein+compound)-Ireporter(+protein)/Ireporter(-protein)-Ireporter(+protein)X100\%

[5] = target: T2, BCL6 BTB domain; experiment: Fluorescence polarisation (FP) competition assay with BCOR-AF633 peptide; format: biochemical; settings: for FP pIC50 Mean / IC50: repurchased hits; for IC50: up to 2 mM, n=1-6, read-out: FP IC50 Geometric Mean
Protocol: A modified BCOR peptide containing a C-terminal cysteine, labelled with Alexa Fluor (AF)633 C5 maleimide ([…]-Cys(AF633)-amide) was obtained from Cambridge Research Biochemical. For high throughput screening, the assay was miniaturized from 10 µL in Perkin Elmer 384-well black Proxi Plus plates to 4 µL in Labcyte 1536-well black low dead volume LP-0410 plates. Each complete reaction (a modified version from[9],[17]) contained 20 mM Hepes/NaOH pH 8.0, 150 mM NaCl, 0.5 mM tris(2-carboxyethyl)phosphine (TCEP), 0.05% (v/v) Tween 20, 10 nM BCOR-AF633 peptide, 3 µM BCL6 BTB and 1–2% (v/v) DMSO. At this protein concentration, we recorded a FP signal of 80 to 90 mP, corresponding to about 55% BCOR-AF633 bound to the BCL6 BTB domain. Compounds and control BCOR peptide were dispensed using an Echo550 acoustic dispenser (Beckman Coulter). Protein and peptide reagents were added using a Multidrop combi (Thermo Scientific) or a Tempest v2 (Formulatrix). After 2 h incubation at room temperature, plates were read on an Envision plate reader (Perkin Elmer) with excitation and emission wavelengths of 620 nm and 688 nm, respectively, or Pherastar FSX (BMG Labtech) with FP filters module 590-50/675-50/675-50. […] As a low signal control, we used either the maximal inhibition by BCOR in the HTS campaign, or the signal obtained from the probe in the absence of BCL6 for IC50 determination. IC50 values were calculated using a sigmoidal dose–response (variable slope) four- parameter equation. Beside the FP measurement, the total fluorescence intensity (TFI) was recorded to allow identification of interfering compounds (TFI > 110% control)[26].

[6] = target: T3, Trx-6His-BCL6 BTB (Homo sapiens, UniProt P41182); experiment: TR-FRET assay, Trx-6His-BCL6 BTB / BCOR-A633 peptide; format: biochemical; settings: 1 or 10 nM Trx-6His-BCL6 BTB; read-out: TR-FRET IC50
T3 construct: made in house; host or cells: E. coli BL21-AI
Protocol: Each 15 µL TR-FRET reaction in 384-well black Proxiplate (Perkin Elmer) contained 1 or 10 nM Trx-6His-BCL6 BTB, 300 nM BCOR-A633 and 0.5 or 1 nM anti-6His-Terbium cryptate (Perkin Elmer), in the FP assay buffer (25 mM Hepes pH 8, 100 mM NaCl, 0.05% (v/v) Tween20, 0.5 mM TCEP), supplemented with 0.05% (w/v) bovine serum albumin. Test compounds in DMSO or DMSO alone were added to the wells using and Echo 550 acoustic dispenser to give the appropriate test concentration in 0.7% v/v DMSO final. After a 2 h incubation at room temperature, the plates were read on an Envision plate reader or a Pherastar FSX plate reader with 337 nm laser excitation, a first emission filter at 665 nm and a second emission filter at 615 or 620 nm. Data were normalised and IC50 determined as described above for the FP assay.

Molecule	Sol. (NMR kinetic solubility) [1] [µM]	TSA Tm (thermal shift) [2]	SPR KD [3]	19F LO-NMR, % peptide displaced [4] [%]	FP pIC50 Mean [5]	IC50 [5] [µM]	Kd [3] [µM]	IC50 [6] [µM]	FP % inhibition at top concentration ([5]; printed beside IC50 >980 µM, 34% inhibition at 1 mM in text) [%]	Displacement of BCL6-bound TFA-WVIP-NH2 peptide (recovery of fluorine signal) [4]	FP % inhibition ([5]; at 980 µM, n=4) [%]
Cc1ccccc1C1CC(c2ccccc2)Nc2ncnn21 (stereo not shown) [Compound 1]	71	0-1 ºC	Fail	61 ± 4	3.70	197					
Fc1ccc(C2CC(c3cccc4ccccc34)n3ncnc3N2)cc1 (stereo not shown) [Compound 3]	64	0.5-2 ºC	Fail	54 ± 1	3.99	102					
Fc1ccc(C2CC(c3ccccc3Cl)Nc3ncnn32)cc1 (stereo not shown) [Compound 5]	< 30	0 ºC			3.71	194					
COC(=O)C1=C(C)Nc2ncnn2C1c1ccc(C(=O)O)cc1 (stereo not shown) [Compound 6]	538	0.5-1 ºC		33.5 ± 1	3.15	703	659				
Cc1cc(NCc2ccc3c(c2)OCO3)n2ncnc2n1 [Compound 9]	96		Fail	49.5 ± 9	3.32	477					
N#Cc1c(C(F)(F)F)cc(-c2cccs2)nc1SC(C(=O)O)c1ccccc1 (stereo not shown) [Compound 13]	313	0-2.5 ºC		102 ± 1	3.64	230	672				
O=C(NCc1ccccn1)c1csc(Nc2ccccc2Cl)n1 [Compound 14]	188	1-2.5 ºC		78 ± 23	3.74	183	302				
Cn1c(=O)n(C)c2cc(Nc3cc(SCc4ccccc4)ncn3)ccc21 [Compound 17]	39			100 ± 1	4.15	70.2	49	54			
N#Cc1c(NCc2ccccc2)ccnc1Cl [Compound 21]	72	1-2 ºC		63 ± 7	3.92	120	81	70		able to displace	
EGLVATVKEAGRSIHEIPR [SMRT, reference compound]										able to displace	

Next, values leading:

Sol. (NMR kinetic solubility) [1] [µM]	TSA Tm (thermal shift) [2]	SPR KD [3]	19F LO-NMR, % peptide displaced [4] [%]	FP pIC50 Mean [5]	IC50 [5] [µM]	Kd [3] [µM]	IC50 [6] [µM]	FP % inhibition at top concentration ([5]; printed beside IC50 >980 µM, 34% inhibition at 1 mM in text) [%]	Displacement of BCL6-bound TFA-WVIP-NH2 peptide (recovery of fluorine signal) [4]	FP % inhibition ([5]; at 980 µM, n=4) [%]	Molecule
476	0.5-3 ºC		82.5 ± 5	4.02	95.5	168					CCCC1=C(C(=O)OCC)C(c2cccnc2)n2ncnc2N1 (stereo not shown) [Compound 7]
70	0.5-2 ºC	Fail		3.66	219						CCC1=C(C(=O)OC)C(c2ccccc2F)n2ncnc2N1 (stereo not shown) [Compound 8]
83			70 ± 1	3.83	150	553					O=C(NCCCN1CCOCC1)c1csc(Nc2cccc3ccccc23)n1 [Compound 15]
55	0-0.5 ºC				> 980			34			Cn1c(=O)n(C)c2cc(Nc3cc(N4CCOCC4)ncn3)ccc21 [Compound 18]
< 30	0 ºC			3.18	666						COc1cccc(CN(C)c2nc3c(cnn3C(C)(C)C)c(=O)[nH]2)c1 [Compound 20]
163	0.5-1 ºC		23 ± 11	3.45	353	1190					CC(C)CCn1c(SCC(=O)Nc2ccccc2F)nc2nccnc2c1=O [Compound 22]
										16	WVIP peptide: hybrid BCOR/SMRT tetrapeptide with an Ac-WVIP-NH2 sequence [reference compound]
